Values quoted from earlier work, collected in patent US20070099863A1, “Compounds for the treatment of demyelinating and autoimmune diseases” (priority 2003, published 2007).
Structures can show the parent of a compound that is named as a salt.

Key:
P2X4 = target: T1, P2X4 (Homo sapiens, UniProt Q99571); settings: P2X4 subtype; read-out: IC50 in relation to P2X4; cited from earlier work
T1 sequence (Q99571 1-388): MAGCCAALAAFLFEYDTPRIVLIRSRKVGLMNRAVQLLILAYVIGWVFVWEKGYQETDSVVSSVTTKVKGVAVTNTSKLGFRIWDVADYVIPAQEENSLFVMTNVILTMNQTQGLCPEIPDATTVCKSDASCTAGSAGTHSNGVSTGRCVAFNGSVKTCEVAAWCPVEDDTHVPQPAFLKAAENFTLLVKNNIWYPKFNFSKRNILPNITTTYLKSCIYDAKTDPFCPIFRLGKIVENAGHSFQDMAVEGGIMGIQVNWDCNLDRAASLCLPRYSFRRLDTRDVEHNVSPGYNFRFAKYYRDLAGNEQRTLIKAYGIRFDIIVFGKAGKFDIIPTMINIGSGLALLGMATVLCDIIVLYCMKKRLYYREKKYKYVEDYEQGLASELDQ

P2X5 = P2X5 (Homo sapiens, UniProt Q93086); settings: P2X5 subtype; read-out: IC50 in relation to P2X5; cited from earlier work
P2X7 = target: T2, P2X7 (Homo sapiens, UniProt Q99572); settings: P2X7 subtype; read-out: IC50 in relation to P2X7; cited from earlier work
T2 sequence (Q99572 1-595): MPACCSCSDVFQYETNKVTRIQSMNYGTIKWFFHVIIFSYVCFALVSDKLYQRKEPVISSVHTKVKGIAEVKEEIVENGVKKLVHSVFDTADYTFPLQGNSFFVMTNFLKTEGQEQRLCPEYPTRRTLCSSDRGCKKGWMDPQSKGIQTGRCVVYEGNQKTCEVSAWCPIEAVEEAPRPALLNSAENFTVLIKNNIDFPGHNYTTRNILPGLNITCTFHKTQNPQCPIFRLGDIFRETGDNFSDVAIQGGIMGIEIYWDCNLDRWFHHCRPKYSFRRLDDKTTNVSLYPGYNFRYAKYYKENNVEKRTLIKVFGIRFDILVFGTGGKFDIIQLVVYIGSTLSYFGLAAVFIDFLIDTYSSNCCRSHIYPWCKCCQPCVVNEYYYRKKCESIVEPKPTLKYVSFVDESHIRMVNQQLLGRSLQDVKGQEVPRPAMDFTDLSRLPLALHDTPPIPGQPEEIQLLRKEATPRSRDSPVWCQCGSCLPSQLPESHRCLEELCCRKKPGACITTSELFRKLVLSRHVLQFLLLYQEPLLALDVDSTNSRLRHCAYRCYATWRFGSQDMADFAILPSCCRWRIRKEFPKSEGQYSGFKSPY

Chain of P2X5 (Q93086 whole entry, species assumed): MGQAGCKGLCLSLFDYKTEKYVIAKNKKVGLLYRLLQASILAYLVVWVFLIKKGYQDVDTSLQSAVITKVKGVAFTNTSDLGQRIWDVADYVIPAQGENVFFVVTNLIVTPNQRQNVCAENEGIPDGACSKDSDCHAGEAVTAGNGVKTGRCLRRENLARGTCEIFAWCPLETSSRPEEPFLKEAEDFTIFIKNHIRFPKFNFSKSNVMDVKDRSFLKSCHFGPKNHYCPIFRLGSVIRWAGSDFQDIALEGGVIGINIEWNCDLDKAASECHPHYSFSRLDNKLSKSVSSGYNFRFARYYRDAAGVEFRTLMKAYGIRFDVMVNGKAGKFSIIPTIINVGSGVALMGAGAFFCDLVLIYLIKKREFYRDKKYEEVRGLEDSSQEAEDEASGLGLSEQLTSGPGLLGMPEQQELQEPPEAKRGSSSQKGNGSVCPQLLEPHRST

Structure (SMILES) | IC50 (P2X4) [µM] | IC50 (P2X5) [µM] | IC50 (P2X7) [µM]
Cc1ccc(C(=O)Nc2ccc(S(=O)(=O)O)c3cc(S(=O)(=O)O)cc(S(=O)(=O)O)c23)cc1NC(=O)c1cccc(NC(=O)Nc2cccc(C(=O)Nc3cc(C(=O)Nc4ccc(S(=O)(=O)O)c5cc(S(=O)(=O)O)cc(S(=O)(=O)O)c45)ccc3C)c2)c1 [Suramin, hexasodium salt of 8,8′-[carbonylbis[imino-3,1-phenylenecarbonylimino(4-methyl-3,1-phenylene)carbonylimino]]bisnaphthalene-1,3,5-trisulphonic acid] | 178 | 4 | –
CCOc1ccc(Nc2ccc(/C(=C3C=C/C(=[N+](/CC)Cc4cccc(S(=O)(=O)[O-])c4)C=C/3C)c3ccc(N(CC)Cc4cccc(S(=O)(=O)O)c4)cc3C)cc2)cc1 [BBG, Coomassie brilliant blue G] | > 10 | – | 0.01
